We go through one compound from ChEMBL document CHEMBL1156502, “Stabilized immune modulatory RNA compounds as agonists of Toll-like receptors 7 and 8” (Proc Natl Acad Sci U S A, 2007).

Molecules are shown by their SMILES. Active and inactive are the calls of the source. No cut-off for these calls is given here.

Series [1] concerns Mus musculus. The series is described as follows: Induction of IL12 secretion in sc dosed C57BL/6 mouse serum after 2 hrs by ELISA. The series is classed as functional, organism-based. (In general: ELISA stands for enzyme-linked immunosorbent assay.)
In series [2] the test system is Mus musculus. Nature of the series: Induction of cytokine secretion in C57BL/6 mouse plasma at 100 mg/kg, sc by Luminex Multiplex assay. Details: dose 100 mg/kg. Format: functional, organism-based.
Series [3] has as its system Mus musculus. The series is described as follows: Induction of chemokine secretion in C57BL/6 mouse plasma at 100 mg/kg, sc by Luminex Multiplex assay. Format: functional, organism-based. Set-up: dose 100 mg/kg.
In series [4] the test system is Mus musculus. The series is described as follows: Induction of IL10 secretion in C57BL/6 mouse plasma at 100 mg/kg, sc by Luminex Multiplex assay. The series is classed as functional, organism-based. Set-up: dose 100 mg/kg.
For series [5], the system named is Mus musculus. The series is described as follows: Induction of IP10 secretion in C57BL/6 mouse plasma at 100 mg/kg, sc by Luminex Multiplex assay. The series is classed as functional, organism-based. Details: dose 100 mg/kg.
In series [6] the test system is Mus musculus. The series is described as follows: Induction of IFN-gamma-induced monoamine secretion in C57BL/6 mouse plasma at 100 mg/kg, sc by Luminex Multiplex assay. The series is classed as functional, organism-based. Set-up: dose 100 mg/kg.
In series [7] the test system is Mus musculus. Nature of the series: Induction of MCP1 secretion in C57BL/6 mouse plasma at 100 mg/kg, sc by Luminex Multiplex assay. Format: functional, organism-based. Set-up: dose 100 mg/kg.
The subject of series [8] is Mus musculus. The series is described as follows: Induction of IL12 secretion in C57BL/6 mouse plasma at 100 mg/kg, sc by Luminex Multiplex assay. Format: functional, organism-based. Details: dose 100 mg/kg.
The subject of series [9] is Cynomolgus monkey. Nature of the series: Induction of immune response in cynomolgus monkey assessed as increase in number of peripheral blood neutrophils at 5 mg/kg, sc within 24 hrs. The series is classed as functional, organism-based. Set-up: dose 5 mg/kg. The conditions noted are these: Macaca fascicularis.
Series [10] relates to Cynomolgus monkey. Nature of the series: Induction of immune response in cynomolgus monkey assessed as increase in number of peripheral blood monocytes at 5 mg/kg, sc within 24 hrs. The conditions noted are these: Macaca fascicularis. Format: functional, organism-based. Details: dose 5 mg/kg.
Series [11] has as its system Cynomolgus monkey. Nature of the series: Increase in CD69 expression on CD3+ lymphocytes in cynomolgus monkey at 5 mg/kg, sc after 24 hrs by flow cytometry relative to control. Format: functional, organism-based. The conditions noted are these: Macaca fascicularis. Details: dose 5 mg/kg. On the technique in general: A flow cytometer gives signals particle by particle.

Series [12] concerns Cynomolgus monkey. The series is described as follows: Increase in CD69 expression on CD16+ NK cells in cynomolgus monkey at 5 mg/kg, sc after 24 hrs by flow cytometry relative to control. The series is classed as functional, organism-based. Set-up: dose 5 mg/kg. The conditions noted are these: Macaca fascicularis.
Series [13] relates to Cynomolgus monkey. The series is described as follows: Increase in CD69 expression on CD14+ monocytes in cynomolgus monkey at 5 mg/kg, sc after 24 hrs by flow cytometry relative to control. Format: functional, organism-based. Set-up: dose 5 mg/kg. The conditions noted are these: Macaca fascicularis.
The test system of series [14] is Cynomolgus monkey. The series is described as follows: Elevation of IFNalpha in cynomolgus monkey plasma at 5 mg/kg, sc after 24 hrs. Details: dose 5 mg/kg. The series is classed as functional, organism-based. The conditions noted are these: Macaca fascicularis.
For series [15], the system named is Cynomolgus monkey. The series is described as follows: Elevation of IP10 in cynomolgus monkey plasma at 5 mg/kg, sc after 24 hrs. The series is classed as functional, organism-based. Details: dose 5 mg/kg. The conditions noted are these: Macaca fascicularis.
The test system of a further series is Dendritic cell. Nature of the series: Induction of IFNalpha secretion in human plasmacytoid dendritic cells at 200 ug/ml after 24 hrs by Luminex Multiplex assay. Format: functional.
The nature of series [16]: Stability in 1% human serum assessed as full length product after 10 mins. The series is classed as ADME, cell-free. The conditions noted are these: read-out: Stability.
Series [17] concerns the target T1, Toll-like receptor 8 (Homo sapiens) (UniProt Q9NR97).
T1 sequence (whole entry): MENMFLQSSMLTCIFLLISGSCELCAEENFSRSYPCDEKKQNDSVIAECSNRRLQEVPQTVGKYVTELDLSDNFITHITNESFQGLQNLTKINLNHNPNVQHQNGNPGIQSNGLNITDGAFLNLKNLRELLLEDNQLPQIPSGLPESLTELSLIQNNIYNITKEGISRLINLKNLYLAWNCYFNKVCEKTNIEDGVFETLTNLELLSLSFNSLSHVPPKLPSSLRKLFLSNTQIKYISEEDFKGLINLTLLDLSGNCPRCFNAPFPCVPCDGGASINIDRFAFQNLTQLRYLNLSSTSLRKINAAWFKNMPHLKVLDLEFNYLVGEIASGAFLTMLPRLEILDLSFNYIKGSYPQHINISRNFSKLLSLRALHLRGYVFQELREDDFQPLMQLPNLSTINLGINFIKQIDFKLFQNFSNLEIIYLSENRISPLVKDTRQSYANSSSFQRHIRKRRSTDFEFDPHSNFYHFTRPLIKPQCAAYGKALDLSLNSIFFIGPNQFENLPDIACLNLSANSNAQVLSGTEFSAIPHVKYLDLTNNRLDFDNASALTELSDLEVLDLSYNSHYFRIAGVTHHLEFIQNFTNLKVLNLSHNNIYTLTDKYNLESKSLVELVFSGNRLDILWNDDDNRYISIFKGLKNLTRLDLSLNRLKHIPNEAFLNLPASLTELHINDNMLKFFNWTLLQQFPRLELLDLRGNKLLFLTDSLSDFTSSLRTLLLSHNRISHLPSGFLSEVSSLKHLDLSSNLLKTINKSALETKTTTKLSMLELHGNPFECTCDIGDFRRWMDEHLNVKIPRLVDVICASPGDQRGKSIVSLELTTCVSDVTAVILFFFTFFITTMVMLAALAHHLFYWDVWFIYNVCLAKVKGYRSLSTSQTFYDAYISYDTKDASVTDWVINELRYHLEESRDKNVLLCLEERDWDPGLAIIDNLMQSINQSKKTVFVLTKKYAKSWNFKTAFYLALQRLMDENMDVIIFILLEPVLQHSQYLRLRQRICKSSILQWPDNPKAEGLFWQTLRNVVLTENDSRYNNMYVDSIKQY
Nature of the series: Activation of human TLR8 expressed in HEK293 cells assessed as increase in NF-kappaB activation at 100 ug/ml by SEAP assay. The series is classed as cell-based.

Series [18] has as its target T2, Toll-like receptor 7 (Homo sapiens) (UniProt Q9NYK1).
T2 sequence (whole entry): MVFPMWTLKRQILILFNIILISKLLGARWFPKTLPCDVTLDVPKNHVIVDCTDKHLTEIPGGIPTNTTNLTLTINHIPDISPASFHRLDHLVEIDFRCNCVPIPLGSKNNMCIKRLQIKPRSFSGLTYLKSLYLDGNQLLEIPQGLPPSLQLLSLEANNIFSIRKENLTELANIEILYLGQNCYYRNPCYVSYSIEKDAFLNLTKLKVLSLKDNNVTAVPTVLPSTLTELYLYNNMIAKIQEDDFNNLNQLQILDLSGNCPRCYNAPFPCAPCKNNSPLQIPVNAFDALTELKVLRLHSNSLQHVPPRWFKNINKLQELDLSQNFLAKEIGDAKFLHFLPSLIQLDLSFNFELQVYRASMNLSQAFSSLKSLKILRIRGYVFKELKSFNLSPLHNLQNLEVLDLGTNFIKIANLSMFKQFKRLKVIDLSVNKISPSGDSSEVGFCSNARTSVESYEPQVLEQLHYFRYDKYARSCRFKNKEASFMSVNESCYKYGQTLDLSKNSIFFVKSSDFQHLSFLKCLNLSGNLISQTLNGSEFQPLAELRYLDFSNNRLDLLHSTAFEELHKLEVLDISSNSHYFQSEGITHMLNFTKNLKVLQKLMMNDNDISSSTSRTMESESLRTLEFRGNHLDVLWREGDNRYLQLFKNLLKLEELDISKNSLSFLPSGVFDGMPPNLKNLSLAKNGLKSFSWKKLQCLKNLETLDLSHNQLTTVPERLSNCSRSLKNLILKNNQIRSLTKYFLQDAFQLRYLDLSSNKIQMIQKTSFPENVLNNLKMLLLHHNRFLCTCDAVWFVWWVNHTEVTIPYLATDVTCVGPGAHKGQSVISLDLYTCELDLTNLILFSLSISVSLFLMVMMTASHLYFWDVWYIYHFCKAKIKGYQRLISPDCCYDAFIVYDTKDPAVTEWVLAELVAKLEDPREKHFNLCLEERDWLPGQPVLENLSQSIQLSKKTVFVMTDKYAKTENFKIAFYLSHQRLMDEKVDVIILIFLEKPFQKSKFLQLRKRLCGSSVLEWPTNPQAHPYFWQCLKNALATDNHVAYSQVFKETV
The series is described as follows: Activation of human TLR7 expressed in HEK293 cells assessed as increase in NF-kappaB activation at 100 ug/ml by SEAP assay. The series is classed as cell-based.

Series [19] deals with spleen. Nature of the series: Induction of cytokine secretion in C57BL/6 mouse spleen cells at 100 ug/ml after 24 hrs by Luminex Multiplex assay. Format: functional, cell-based.
The test system of series [20] is spleen. The series is described as follows: Induction of chemokine secretion in C57BL/6 mouse spleen cells 100 ug/ml after 24 hrs by Luminex Multiplex assay. The series is classed as functional, cell-based.

In the case of `Nc1ccn([C@@H]2O[C@H](COP(O)(=S)O[C@H]3[C@@H](O)[C@H](n4ccc(=O)[nH]c4=O)O[C@@H]3COP(O)(=S)O[C@H]3[C@@H](O)[C@H](n4ccc(=O)[nH]c4=O)O[C@@H]3COP(O)(=S)O[C@H]3[C@@H](O)[C@H](n4ccc(N)nc4=O)O[C@@H]3COP(O)(=S)O[C@H]3[C@@H](O)[C@H](n4ccc5c(=O)[nH]c(N)nc54)O[C@@H]3COP(O)(=S)O[C@H]3[C@@H](O)[C@H](n4ccc(=O)[nH]c4=O)O[C@@H]3COP(O)(=S)O[C@H]3[C@@H](O)[C@H](n4ccc(N)nc4=O)O[C@@H]3COP(O)(=S)O[C@H]3[C@@H](O)[C@H](n4ccc5c(=O)[nH]c(N)nc54)O[C@@H]3COP(O)(=S)O[C@H]3[C@@H](O)[C@H](n4ccc(=O)[nH]c4=O)O[C@@H]3CO)[C@@H](OP(O)(=S)OC[C@H]3O[C@@H](n4ccc(=O)[nH]c4=O)[C@H](O)[C@@H]3OP(O)(=S)OC[C@H]3O[C@@H](n4ccc5c(=O)[nH]c(N)nc54)[C@H](O)[C@@H]3OP(O)(=S)OCC(O)COP(O)(=S)O[C@H]3[C@@H](O)[C@H](n4ccc5c(=O)[nH]c(N)nc54)O[C@@H]3COP(O)(=S)O[C@H]3[C@@H](O)[C@H](n4ccc(=O)[nH]c4=O)O[C@@H]3COP(O)(=S)O[C@H]3[C@@H](O)[C@H](n4ccc(N)nc4=O)O[C@@H]3COP(O)(=S)O[C@H]3[C@@H](O)[C@H](n4ccc(=O)[nH]c4=O)O[C@@H]3COP(O)(=S)O[C@H]3[C@@H](O)[C@H](n4ccc(=O)[nH]c4=O)O[C@@H]3COP(O)(=S)O[C@H]3[C@@H](O)[C@H](n4ccc(N)nc4=O)O[C@@H]3COP(O)(=S)O[C@H]3[C@@H](O)[C@H](n4ccc5c(=O)[nH]c(N)nc54)O[C@@H]3COP(O)(=S)O[C@H]3[C@@H](O)[C@H](n4ccc(=O)[nH]c4=O)O[C@@H]3COP(O)(=S)O[C@H]3[C@@H](O)[C@H](n4ccc(N)nc4=O)O[C@@H]3COP(O)(=S)O[C@H]3[C@@H](O)[C@H](n4ccc5c(=O)[nH]c(N)nc54)O[C@@H]3COP(O)(=S)O[C@H]3[C@@H](O)[C@H](n4ccc(=O)[nH]c4=O)O[C@@H]3CO)[C@H]2O)c(=O)n1` (stereo partly specified), the Activity entry in the series on Mus musculus [1], in the series with spleen [19] and in the series with spleen [20] was “Dose-dependent effect” throughout. The result in the series with Mus musculus [2] and in the series on Mus musculus [3] was inactive. The outcome in the series on Mus musculus [4], with Mus musculus [5], with Mus musculus [6], in the series with Mus musculus [7], with Mus musculus [8] and in the series with Cynomolgus monkey [9] was Active. In addition, the result in the series on Cynomolgus monkey [10], with Cynomolgus monkey [11], in the series with Cynomolgus monkey [12], in the series on Cynomolgus monkey [13], in the series on Cynomolgus monkey [14] and in the series on Cynomolgus monkey [15] was Active. The result (with Dendritic cell; in series [17]; in [18]) was Active. In addition, the remaining at 10 min in series [16] amounted to 57%.
